Read-outs that look alike come from different tables or passages of the source.
Columns and labels:
Type in all cases: in vivo
[1] = test system: Surinam grass (Brachiaria decumbens); assay: Test C pre/postemergence; conditions: Urochloa decumbens; for pest or weed control at 8 g/ha: 8 g ai/ha; for pest or weed control at 16 g/ha: 16 g ai/ha; for pest or weed control at 31 g/ha: 31 g ai/ha; for pest or weed control at 62 g/ha: 62 g ai/ha
Method in brief: (§1)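 Pre: seeds planted, sprayed same day. Post: 1- to 4-leaf plants (2–18 cm). Formulation: non-phytotoxic solvent + surfactant. Greenhouse 12–14 d; visual % control vs untreated, 0–100.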

[2] = test system: common (oilseed) sunflower (Helianthus annuus); assay: Test C pre/postemergence; conditions: Helianthus annuus, pre-emergence, Preemergence, read-out: Plant response rating, Sunflower
Method in brief: as §1

[3] = test system: common ragweed (Ambrosia elatior); assay: Test C pre/postemergence; conditions: Ambrosia artemisiifolia; for pest or weed control at 8 g/ha: 8 g ai/ha; for pest or weed control at 16 g/ha: 16 g ai/ha; for pest or weed control at 31 g/ha: 31 g ai/ha; for pest or weed control at 62 g/ha: 62 g ai/ha
Method in brief: as §1

[4] = test system: giant foxtail (Setaria faberii); assay: Test C pre/postemergence; conditions: Setaria faberi; for pest or weed control at 8 g/ha: 8 g ai/ha; for pest or weed control at 31 g/ha: 31 g ai/ha; for pest or weed control at 62 g/ha: 62 g ai/ha
Method in brief: as §1

[5] = test system: johnsongrass (Sorghum halepense); assay: Test C pre/postemergence; conditions: Sorghum halepense; for pest or weed control at 8 g/ha: 8 g ai/ha; for pest or weed control at 16 g/ha: 16 g ai/ha; for pest or weed control at 31 g/ha: 31 g ai/ha; for pest or weed control at 62 g/ha: 62 g ai/ha
Method in brief: as §1

kochia (Kochia scoparia) = assay: Test C pre/postemergence; conditions: Bassia scoparia; for pest or weed control at 8 g/ha: 8 g ai/ha; for pest or weed control at 16 g/ha: 16 g ai/ha; for pest or weed control at 31 g/ha: 31 g ai/ha; for pest or weed control at 62 g/ha: 62 g ai/ha
Method in brief: as §1

[6] = test system: morningglory (Ipomoea coccinea); assay: Test C pre/postemergence; conditions: Ipomoea; for pest or weed control at 8 g/ha: 8 g ai/ha; for pest or weed control at 31 g/ha: 31 g ai/ha; for pest or weed control at 62 g/ha: 62 g ai/ha
Method in brief: as §1

[7] = test system: pigweed (Amaranthus retroflexus); assay: Test C pre/postemergence; conditions: Amaranthus retroflexus; for pest or weed control at 8 g/ha: 8 g ai/ha; for pest or weed control at 16 g/ha: 16 g ai/ha; for pest or weed control at 31 g/ha: 31 g ai/ha; for pest or weed control at 62 g/ha: 62 g ai/ha
Method in brief: as §1

soybean (Glycine max) = assay: Test C pre/postemergence; conditions: Glycine max; for plant injury at 8 g/ha: 8 g ai/ha; for plant injury at 16 g/ha: 16 g ai/ha; for plant injury at 31 g/ha: 31 g ai/ha; for plant injury at 62 g/ha: 62 g ai/ha
Method in brief: as §1

[8] = test system: woolly cupgrass (Eriochloa villosa); assay: Test C pre/postemergence; conditions: Eriochloa villosa; for pest or weed control at 8 g/ha: 8 g ai/ha; for pest or weed control at 16 g/ha: 16 g ai/ha; for pest or weed control at 31 g/ha: 31 g ai/ha; for pest or weed control at 62 g/ha: 62 g ai/ha
Method in brief: as §1

[9] = test system: yellow nutsedge (Cyperus esculentus); assay: Test C pre/postemergence; conditions: Cyperus; for pest or weed control at 8 g/ha: 8 g ai/ha; for pest or weed control at 16 g/ha: 16 g ai/ha; for pest or weed control at 31 g/ha: 31 g ai/ha; for pest or weed control at 62 g/ha: 62 g ai/ha
Method in brief: as §1

[10] = test system: chickweed (Stellaria media); assay: Test C postemergence; conditions: Stellaria media, post-emergence
Method in brief: as §1

[11] = post-emergence, Postemergence, read-out: Plant response rating (scale of 0 to 100), Surinam Grass
[12] = pre-emergence, Preemergence, scale 0 to 100, 0 no effect, 100 complete control, read-out: Plant response rating, Surinam Grass
[13] = post-emergence, Postemergence, read-out: Plant response rating (scale of 0 to 100), Ragweed
[14] = pre-emergence, Preemergence, scale 0 to 100, 0 no effect, 100 complete control, read-out: Plant response rating, Ragweed
[15] = post-emergence, Postemergence, read-out: Plant response rating (scale of 0 to 100), Foxtail, Giant
[16] = pre-emergence, Preemergence, scale 0 to 100, 0 no effect, 100 complete control, read-out: Plant response rating, Foxtail, Giant
[17] = post-emergence, Postemergence, read-out: Plant response rating (scale of 0 to 100), Johnsongrass
[18] = pre-emergence, Preemergence, scale 0 to 100, 0 no effect, 100 complete control, read-out: Plant response rating, Johnsongrass
[19] = post-emergence, Postemergence, read-out: Plant response rating (scale of 0 to 100), Kochia
[20] = pre-emergence, Preemergence, scale 0 to 100, 0 no effect, 100 complete control, read-out: Plant response rating, Kochia
[21] = post-emergence, Postemergence, read-out: Plant response rating (scale of 0 to 100), Morningglory
[22] = pre-emergence, Preemergence, scale 0 to 100, 0 no effect, 100 complete control, read-out: Plant response rating, Morningglory
[23] = post-emergence, Postemergence, read-out: Plant response rating (scale of 0 to 100), Pigweed
[24] = pre-emergence, Preemergence, scale 0 to 100, 0 no effect, 100 complete control, read-out: Plant response rating, Pigweed
[25] = post-emergence, Postemergence, read-out: Plant response rating (scale of 0 to 100), Soybean
[26] = pre-emergence, Preemergence, scale 0 to 100, 0 no effect, 100 complete control, read-out: Plant response rating, Soybean
[27] = post-emergence, Postemergence, read-out: Plant response rating (scale of 0 to 100), Cupgrass, Woolly
[28] = pre-emergence, Preemergence, scale 0 to 100, 0 no effect, 100 complete control, read-out: Plant response rating, Cupgrass, Woolly
[29] = post-emergence, Postemergence, read-out: Plant response rating (scale of 0 to 100), Nutsedge, Yellow
[30] = pre-emergence, Preemergence, scale 0 to 100, 0 no effect, 100 complete control, read-out: Plant response rating, Nutsedge, Yellow

Nc1nc(-c2ccc(Br)cc2)nc(C(=O)O)c1Cl [Compound 95, 6-amino-2-(4-bromophenyl)-5-chloro-4-pyrimidinecarboxylic acid]
40%: pest or weed control at 16 g/ha ([2]; 16 g ai/ha, scale 0 to 100, 0 no effect, 100 complete control) | pest or weed control at 31 g/ha (kochia (Kochia scoparia); [20]) | pest or weed control at 16 g/ha [9, 30]
90%: pest or weed control at 8 g/ha ([3]; post-emergence, Postemergence, scale 0 to 100, read-out: Plant response rating, Ragweed) | pest or weed control at 16 g/ha [3, 14] | pest or weed control at 62 g/ha [5, 17] | pest or weed control at 8 g/ha (kochia (Kochia scoparia); post-emergence, Postemergence, scale 0 to 100, read-out: Plant response rating, Kochia) | pest or weed control at 8 g/ha ([7]; post-emergence, Postemergence, scale 0 to 100, read-out: Plant response rating, Pigweed) | pest or weed control at 16 g/ha [7, 24] | plant injury at 8 g/ha (soybean (Glycine max); pre-emergence, Preemergence, scale 0 to 100 (0 no effect, 100 complete control), read-out: Plant response rating, Soybean) | plant injury at 16 g/ha (soybean (Glycine max); [26])
50%: pest or weed control at 16 g/ha [5, 18] | pest or weed control at 8 g/ha ([7]; pre-emergence, Preemergence, scale 0 to 100 (0 no effect, 100 complete control), read-out: Plant response rating, Pigweed)
35%: pest or weed control at 62 g/ha [4, 16]
45%: pest or weed control at 62 g/ha (kochia (Kochia scoparia); [20])
0%: pest or weed control at 8 g/ha ([1]; pre-emergence, Preemergence, scale 0 to 100 (0 no effect, 100 complete control), read-out: Plant response rating, Surinam Grass) | pest or weed control at 16 g/ha [1, 12] | pest or weed control at 8 g/ha ([4]; pre-emergence, Preemergence, scale 0 to 100 (0 no effect, 100 complete control), read-out: Plant response rating, Foxtail, Giant) | pest or weed control at 16 g/ha ([4]; pre-emergence, Preemergence, 16 g ai/ha, scale 0 to 100, 0 no effect, 100 complete control, read-out: Plant response rating, Foxtail, Giant) | pest or weed control at 8 g/ha ([5]; pre-emergence, Preemergence, scale 0 to 100 (0 no effect, 100 complete control), read-out: Plant response rating, Johnsongrass) | pest or weed control at 8 g/ha (kochia (Kochia scoparia); pre-emergence, Preemergence, scale 0 to 100 (0 no effect, 100 complete control), read-out: Plant response rating, Kochia) | pest or weed control at 16 g/ha (kochia (Kochia scoparia); [20]) | pest or weed control at 8 g/ha ([6]; pre-emergence, Preemergence, scale 0 to 100 (0 no effect, 100 complete control), read-out: Plant response rating, Morningglory) | pest or weed control at 16 g/ha ([6]; pre-emergence, Preemergence, 16 g ai/ha, scale 0 to 100, 0 no effect, 100 complete control, read-out: Plant response rating, Morningglory) | pest or weed control at 8 g/ha ([8]; pre-emergence, Preemergence, scale 0 to 100 (0 no effect, 100 complete control), read-out: Plant response rating, Cupgrass, Woolly) | pest or weed control at 16 g/ha [8, 28] | pest or weed control at 31 g/ha [8, 28] | pest or weed control at 8 g/ha ([9]; pre-emergence, Preemergence, scale 0 to 100 (0 no effect, 100 complete control), read-out: Plant response rating, Nutsedge, Yellow)
80%: pest or weed control at 62 g/ha [4, 15] | pest or weed control at 62 g/ha [5, 18] | pest or weed control at 31 g/ha [6, 21] | pest or weed control at 62 g/ha [8, 27]
30%: pest or weed control at 31 g/ha [4, 16]
5%: pest or weed control at 31 g/ha [1, 12] | pest or weed control at 8 g/ha ([2]; 8 g ai/ha, scale 0 to 100 (0 no effect, 100 complete control)) | pest or weed control at 62 g/ha [8, 28]
70%: pest or weed control at 31 g/ha [1, 11] | pest or weed control at 8 g/ha ([4]; post-emergence, Postemergence, scale 0 to 100, read-out: Plant response rating, Foxtail, Giant) | pest or weed control at 16 g/ha [5, 17]
65%: pest or weed control at 16 g/ha [1, 11] | pest or weed control at 8 g/ha ([3]; pre-emergence, Preemergence, scale 0 to 100 (0 no effect, 100 complete control), read-out: Plant response rating, Ragweed)
95%: pest or weed control at 31 g/ha ([2]; 31 g ai/ha, scale 0 to 100, 0 no effect, 100 complete control) | pest or weed control at 16 g/ha [3, 13] | pest or weed control at 31 g/ha [3, 13] | pest or weed control at 62 g/ha [3, 13] | pest or weed control at 16 g/ha (kochia (Kochia scoparia); [19]) | pest or weed control at 31 g/ha (kochia (Kochia scoparia); [19]) | pest or weed control at 62 g/ha (kochia (Kochia scoparia); [19]) | pest or weed control at 62 g/ha [6, 21] | pest or weed control at 16 g/ha [7, 23] | pest or weed control at 8 g/ha ([10]; 8 g ai/ha, scale 0 to 100, read-out: Plant response rating, Chickweed) | pest or weed control at 62 g/ha ([10]; 62 g ai/ha, read-out: Plant response rating (scale of 0 to 100), Chickweed)
55%: pest or weed control at 8 g/ha ([1]; post-emergence, Postemergence, scale 0 to 100, read-out: Plant response rating, Surinam Grass) | pest or weed control at 8 g/ha ([5]; post-emergence, Postemergence, scale 0 to 100, read-out: Plant response rating, Johnsongrass) | pest or weed control at 8 g/ha ([9]; post-emergence, Postemergence, scale 0 to 100, read-out: Plant response rating, Nutsedge, Yellow)
100%: pest or weed control at 62 g/ha ([2]; 62 g ai/ha, scale 0 to 100, 0 no effect, 100 complete control) | pest or weed control at 31 g/ha [3, 14] | pest or weed control at 62 g/ha [3, 14] | pest or weed control at 31 g/ha [7, 23] | pest or weed control at 62 g/ha [7, 23] | pest or weed control at 31 g/ha [7, 24] | pest or weed control at 62 g/ha [7, 24] | plant injury at 8 g/ha (soybean (Glycine max); post-emergence, Postemergence, scale 0 to 100, read-out: Plant response rating, Soybean) | plant injury at 16 g/ha (soybean (Glycine max); [25]) | plant injury at 31 g/ha (soybean (Glycine max); [25]) | plant injury at 62 g/ha (soybean (Glycine max); [25]) | plant injury at 31 g/ha (soybean (Glycine max); [26]) | plant injury at 62 g/ha (soybean (Glycine max); [26])
60%: pest or weed control at 31 g/ha [5, 18] | pest or weed control at 8 g/ha ([6]; post-emergence, Postemergence, scale 0 to 100, read-out: Plant response rating, Morningglory) | pest or weed control at 62 g/ha [6, 22] | pest or weed control at 16 g/ha [9, 29] | pest or weed control at 31 g/ha [9, 29] | pest or weed control at 31 g/ha [9, 30] | pest or weed control at 62 g/ha [9, 30]
10%: pest or weed control at 62 g/ha [1, 12] | pest or weed control at 31 g/ha [6, 22]
75%: pest or weed control at 62 g/ha [1, 11] | pest or weed control at 31 g/ha [4, 15] | pest or weed control at 31 g/ha [5, 17] | pest or weed control at 8 g/ha ([8]; post-emergence, Postemergence, scale 0 to 100, read-out: Plant response rating, Cupgrass, Woolly) | pest or weed control at 16 g/ha [8, 27] | pest or weed control at 31 g/ha [8, 27] | pest or weed control at 62 g/ha [9, 29]

From US8802597B2, “Herbicidal pyrimidines” (E I du Pont de Nemours and Company, priority 2003, dated 2014)
